According to PubChem BioAssay (NCI):
“And” between values parts separate entries of the source, which are not always exact repeats. Equal values may be shown once.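 Step 1: Grow cells in 96-well plates. Step 2: Expose to compound for 48 hours at 5 concentrations. Step 3: Interpolate endpoints linearly; if unreached, use highest concentration. GI50 is the concentration that inhibits growth by half. TGI is the concentration that stops growth completely.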

Key:
Test in all cases: DTP human tumour cell line panel, 48 h
SW-620 colon = tested on: SW-620 colon
OVCAR-8 ovarian = tested on: OVCAR-8 ovarian
SK-MEL-2 melanoma = tested on: SK-MEL-2 melanoma
ACHN renal = tested on: ACHN renal
A549 NSCLC = tested on: A549 NSCLC
NCI-H522 lung = tested on: NCI-H522 lung
HCT-15 colon = tested on: HCT-15 colon
SK-OV-3 ovarian = tested on: SK-OV-3 ovarian
NCI-H460 lung = tested on: NCI-H460 lung
NCI-H23 lung = tested on: NCI-H23 lung
SK-MEL-28 melanoma = tested on: SK-MEL-28 melanoma
SN12C renal = tested on: SN12C renal
786-0 renal = tested on: 786-0 renal
HT29 colon = tested on: HT29 colon
T-47D breast = tested on: T-47D breast
M14 melanoma = tested on: M14 melanoma
HL-60(TB) leukemia = tested on: HL-60(TB) leukemia

Structure (SMILES)	TGI (SW-620 colon) [µM]	TGI (OVCAR-8 ovarian) [µM]	TGI (SK-MEL-2 melanoma) [µM]	TGI (ACHN renal) [µM]	TGI (A549 NSCLC) [µM]	TGI (NCI-H522 lung)	TGI (HCT-15 colon) [µM]	TGI (SK-OV-3 ovarian) [µM]	TGI (NCI-H460 lung)	TGI (NCI-H23 lung) [µM]	TGI (SK-MEL-28 melanoma) [µM]	TGI (SN12C renal) [µM]	TGI (786-0 renal) [µM]	TGI (HT29 colon) [µM]	TGI (T-47D breast) [µM]	TGI (M14 melanoma) [µM]	GI50 (NCI-H460 lung)	GI50 (SK-MEL-28 melanoma)	TGI (HL-60(TB) leukemia) [µM]	GI50 (M14 melanoma)
COc1ccc2c(c1)-c1c(c3ccccc3n1CCN1CCOCC1)CC2	> 100	53.2	28.9	> 100	> 100	37.3 µM	> 100	> 100	34.2 µM	65.6	> 100	> 100	54.1	25.9	> 100	> 100				
COc1ccc(-c2c(C(C)=O)c(-c3ccccc3)n(C3OC(COC(C)=O)C(OC(C)=O)C(OC(C)=O)C3OC(C)=O)c(=S)c2C#N)cc1O (stereo unspecified)	> 100			> 100	> 100	35.9 µM and 47.7 µM	> 100		37.4 µM and > 100 µM	> 100	> 100	> 100	> 100	> 100		> 100	10.8 µM and 43.5 µM	27.2 µM and 65.9 µM	> 100	36.2 µM and 93 µM
CCOC(=O)CC(=Nc1cc(C)on1)N(CC)CC	> 100	> 100	> 100	> 100	> 100	> 100 µM	> 100	> 100	> 100 µM	> 100	> 100	> 100	> 100	> 100		> 100				
Cc1ccc(C(=O)NC(C)C)cc1N=NN(C)C	> 100	> 100	> 100	> 100	> 100	> 100 µM	> 100		> 100 µM	> 100	> 100	> 100	> 100	> 100		> 100				
CCOC(=O)/C(=C\NC#N)c1nc2ccccc2[nH]1	> 100	> 100		> 100	> 100	> 100 µM	> 100	> 100	> 100 µM	> 100	> 100	> 100	> 100	> 100		> 100			> 100	
